Source: PubChem BioAssay AID2060906 (Molecular Pharmacology Branch, DTP, NCI, 2025)

System: 485176-168-R4-J1-PDC complex spheroid growth
Test: Anticancer human tumor 485176-168-R4-J1-PDC patient-derived pancreatic adenocarcinoma cell line growth inhibition [RAS]
Settings: for IC50: curve of first compound; for viability, T/C: stronger effect = lower value
How it was run: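 Multi-cell-type spheroids: tumor cells plus HUVEC endothelial cells and mesenchymal stem cells. RAS-pathway inhibitors were combined with targeted agents, each dosed in half-log steps down from clinical Cmax, or from 10 microM when Cmax was unknown.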
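Further: spheroids exposed to compounds for seven days before readout.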
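Wherever viability, T/C is given: luminescence viability expressed relative to DMSO vehicle wells set as 100%.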

`CCc1c2c(nc3ccc(O)cc13)-c1cc3c(c(=O)n1C2)COC(=O)[C@]3(O)CC` + CCn1c(-c2cccnc2C(C)OC)c2c3cc(ccc31)N1CCOC(CC(NC(=O)C(C(C)C)N(C)C(=O)C3(F)CCN(C(=O)C#CC(C)(C)N(C)C)CC3)C(=O)N3CCCC(N3)C(=O)OCC(C)(C)C2)C1 gave an IC50 (second compound 0.000949 µM) of 12.7 nM, an IC50 (second compound 0.003 µM) of 8.73 nM and an IC50 (second compound 0.00949 µM) of 15 nM. It also gave an IC50 (second compound 0.03 µM) of 12.5 nM, an IC50 (second compound 0.0949 µM) of 6.74 nM and an IC50 (second compound 0.3 µM) of 7.31 nM. For the same compound, the viability, T/C (second compound 0.000949 µM, first compound 0.000949 µM) was 89%, the viability, T/C (second compound 0.000949 µM, first compound 0.003 µM) was 84.4% and the viability, T/C (second compound 0.000949 µM, first compound 0.00949 µM) was 56%. It also gave a viability, T/C (second compound 0.000949 µM, first compound 0.03 µM) of 27.5%, a viability, T/C (second compound 0.000949 µM, first compound 0.0949 µM) of 12.2% and a viability, T/C (second compound 0.000949 µM, first compound 0.3 µM) of 5.05%. For the same compound, the viability, T/C (second compound 0.003 µM, first compound 0.000949 µM) was 92.2%, the viability, T/C (second compound 0.003 µM, first compound 0.003 µM) was 84.3% and the viability, T/C (second compound 0.003 µM, first compound 0.00949 µM) was 43%. For the same compound, the viability, T/C (second compound 0.003 µM, first compound 0.03 µM) was 25.8%, the viability, T/C (second compound 0.003 µM, first compound 0.0949 µM) was 10.7% and the viability, T/C (second compound 0.003 µM, first compound 0.3 µM) was 7.84%. It also gave a viability, T/C (second compound 0.00949 µM, first compound 0.000949 µM) of 89.5%, a viability, T/C (second compound 0.00949 µM, first compound 0.003 µM) of 96.3% and a viability, T/C (second compound 0.00949 µM, first compound 0.00949 µM) of 63.1%. It also gave a viability, T/C (second compound 0.00949 µM, first compound 0.03 µM) of 27.6%, a viability, T/C (second compound 0.00949 µM, first compound 0.0949 µM) of 10.5% and a viability, T/C (second compound 0.00949 µM, first compound 0.3 µM) of 7.04%. It also gave a viability, T/C (second compound 0.03 µM, first compound 0.000949 µM) of 96.3%, a viability, T/C (second compound 0.03 µM, first compound 0.003 µM) of 94.1% and a viability, T/C (second compound 0.03 µM, first compound 0.00949 µM) of 52.5%. The viability, T/C (second compound 0.03 µM, first compound 0.03 µM) was 29.2%, the viability, T/C (second compound 0.03 µM, first compound 0.0949 µM) was 10.9% and the viability, T/C (second compound 0.03 µM, first compound 0.3 µM) was 4.84%. It also gave a viability, T/C (second compound 0.0949 µM, first compound 0.000949 µM) of 91.5%, a viability, T/C (second compound 0.0949 µM, first compound 0.003 µM) of 67.8% and a viability, T/C (second compound 0.0949 µM, first compound 0.00949 µM) of 43.4%. It also gave a viability, T/C (second compound 0.0949 µM, first compound 0.03 µM) of 19.7%, a viability, T/C (second compound 0.0949 µM, first compound 0.0949 µM) of 5.98% and a viability, T/C (second compound 0.0949 µM, first compound 0.3 µM) of 3.35%. It also gave a viability, T/C (second compound 0.3 µM, first compound 0.000949 µM) of 68.7%, a viability, T/C (second compound 0.3 µM, first compound 0.003 µM) of 64.1% and a viability, T/C (second compound 0.3 µM, first compound 0.00949 µM) of 45.9%. It also gave a viability, T/C (second compound 0.3 µM, first compound 0.03 µM) of 10.6%, a viability, T/C (second compound 0.3 µM, first compound 0.0949 µM) of 4.63% and a viability, T/C (second compound 0.3 µM, first compound 0.3 µM) of 2.53%.
For `C=CC(=O)N1CCN(c2nc(OCC3CCCN3C)nc3c(F)c(-c4nc(N)cc(C)c4C(F)(F)F)c(Cl)cc23)C(C)C1` (centres undefined) + C#Cc1c(F)ccc2cc(O)cc(-c3ncc4c(N5CC6CCC(C5)N6)nc(OCC56CCCN5CC(F)C6)nc4c3F)c12, the IC50 (second compound 0.0316 µM) was > 1000 nM, the IC50 (second compound 0.1 µM) was > 1000 nM and the IC50 (second compound 0.316 µM) was > 1000 nM. The IC50 (second compound 1 µM) was > 1000 nM, the IC50 (second compound 3.16 µM) was > 1000 nM and the IC50 (second compound 10 µM) was > 1000 nM. The viability, T/C (second compound 0.0316 µM, first compound 0.00316 µM) was 103%, the viability, T/C (second compound 0.0316 µM, first compound 0.01 µM) was 88.9% and the viability, T/C (second compound 0.0316 µM, first compound 0.0316 µM) was 88.5%. The viability, T/C (second compound 0.0316 µM, first compound 0.1 µM) was 105%, the viability, T/C (second compound 0.0316 µM, first compound 0.316 µM) was 96.8% and the viability, T/C (second compound 0.0316 µM, first compound 1 µM) was 103%. It also gave a viability, T/C (second compound 0.1 µM, first compound 0.00316 µM) of 117%, a viability, T/C (second compound 0.1 µM, first compound 0.01 µM) of 109% and a viability, T/C (second compound 0.1 µM, first compound 0.0316 µM) of 99.2%. For the same compound, the viability, T/C (second compound 0.1 µM, first compound 0.1 µM) was 102%, the viability, T/C (second compound 0.1 µM, first compound 0.316 µM) was 108% and the viability, T/C (second compound 0.1 µM, first compound 1 µM) was 103%. For the same compound, the viability, T/C (second compound 0.316 µM, first compound 0.00316 µM) was 86.8%, the viability, T/C (second compound 0.316 µM, first compound 0.01 µM) was 93.6% and the viability, T/C (second compound 0.316 µM, first compound 0.0316 µM) was 103%. For the same compound, the viability, T/C (second compound 0.316 µM, first compound 0.1 µM) was 103%, the viability, T/C (second compound 0.316 µM, first compound 0.316 µM) was 87.3% and the viability, T/C (second compound 0.316 µM, first compound 1 µM) was 89.9%. The viability, T/C (second compound 1 µM, first compound 0.00316 µM) was 115%, the viability, T/C (second compound 1 µM, first compound 0.01 µM) was 83.1% and the viability, T/C (second compound 1 µM, first compound 0.0316 µM) was 77.5%. The viability, T/C (second compound 1 µM, first compound 0.1 µM) was 101%, the viability, T/C (second compound 1 µM, first compound 0.316 µM) was 97.1% and the viability, T/C (second compound 1 µM, first compound 1 µM) was 86.1%. For the same compound, the viability, T/C (second compound 3.16 µM, first compound 0.00316 µM) was 115%, the viability, T/C (second compound 3.16 µM, first compound 0.01 µM) was 92.2% and the viability, T/C (second compound 3.16 µM, first compound 0.0316 µM) was 85.3%. The viability, T/C (second compound 3.16 µM, first compound 0.1 µM) was 104%, the viability, T/C (second compound 3.16 µM, first compound 0.316 µM) was 98.1% and the viability, T/C (second compound 3.16 µM, first compound 1 µM) was 70.3%. The viability, T/C (second compound 10 µM, first compound 0.00316 µM) was 94.1%, the viability, T/C (second compound 10 µM, first compound 0.01 µM) was 81.8% and the viability, T/C (second compound 10 µM, first compound 0.0316 µM) was 95.9%. For the same compound, the viability, T/C (second compound 10 µM, first compound 0.1 µM) was 94.6%, the viability, T/C (second compound 10 µM, first compound 0.316 µM) was 95.2% and the viability, T/C (second compound 10 µM, first compound 1 µM) was 94.8%.
